# Where two headings read alike, the source gives them in different places.
# Key:
# [1] = biological target: T1, ATR/ATRIP enzyme (Homo sapiens, UniProt Q13535); assay: ATR enzyme activity experiment (HTRF); type: biochemical; settings: p53 substrate, 30 min room temperature, read-out: IC50 (nM), inhibitory effect on ATR kinase activity
# T1 construct: purchased Eurofins 14-953
# Description: The mixture was centrifuged at 1000 rpm for 1 minute, and reacted at room temperature protected from light for 30 minutes. Then 5 μL of EDTA stop solution (250 mM) was added to stop the reaction.
# [2] = system: human lung cancer NCI-H460 cell; assay: MTT proliferation assay, NCI-H460; type: cell-based; settings: NCI-H460, 96 h, MTT, 4 days, read-out: IC50 (nM), proliferation of NCI-H460 cell
# Description: The cells were digested by trypsinase and centrifuged at 800 rpm for 5 minutes, the supernatant was discarded, and the residual was resuspended with fresh medium […]) and counted.
# (§1) The cells were seeded into 96-well cell culture plate with a density of 2000/4000 cells per well and incubated overnight in a 5% CO2 incubator at 37° C. […] 5 μL diluent of each concentration was added to 120 μL of medium (25 times diluted) and mixed by shaking. The overnight cell plates were taken and the culture medium was removed, 195 μL of fresh medium was added to each well, and 5 μL of diluted medium containing the corresponding concentration of the test compound was added respectively (the final concentration of DMSO is 1%), and the culture plate was then placed in a 5% CO2 incubator at 37° C. for 4 days. After removing the original solution, 100 μL of fresh serum-free DMEM medium containing MTT (0.5 mg/mL) was added to each well, the culture was continued. […] Cell viability (%)=(ODcompound−ODbackground)/(ODDMSO−ODbackground)×100. GraphPad Prism 6.0 was used to analyze the data. The inhibitory activity of compounds on cell proliferation was plotted based on cell viability and the logarithm of compound concentration. The IC50 value was fitted by a sigmoidal dose response curve equation Y−100/(1+10^(LogC−LogIC50)), wherein C was the concentration of compound.
# [3] = system: human colon cancer LoVo cell; assay: MTT proliferation assay, LoVo; type: cell-based; settings: MTT, 4 days, read-out: IC50 (nM), proliferation of LoVo cell
# Description: as §1, with “[…]” for “100 μL”, “viability (%)=(ODcompound−ODbackground)/ODDMSO−ODbackground)×100.” for “viability (%)=(ODcompound−ODbackground)/(ODDMSO−ODbackground)×100.”, “The IC5.0” for “The IC50”, “equation Y=100/(1+10^(LogC-LogIC50)),” for “equation Y−100/(1+10^(LogC−LogIC50)),”
# [4] = Pharmacokinetics following single oral administration to mice; type: in vivo; settings: mouse, CD-1 (ICR) mice, gavage 10 mg/kg, 0.5% methylcellulose/water suspension, plasma
# Description: The compound of the present invention was formulated into a 0.5% methylcellulose/water uniform suspension, and was administered to CD-1 (ICR) mice by gavage at 10 mg/kg. Plasma samples were collected at 8 time points of 0.250, 0.500, 1.00, 2.00, 4.00, 6.00, 8.00 and 24.0 hours post-dose. Concentrations of the compound were determined by LC-MS/MS method.
# T1 sequence (Q13535 whole entry): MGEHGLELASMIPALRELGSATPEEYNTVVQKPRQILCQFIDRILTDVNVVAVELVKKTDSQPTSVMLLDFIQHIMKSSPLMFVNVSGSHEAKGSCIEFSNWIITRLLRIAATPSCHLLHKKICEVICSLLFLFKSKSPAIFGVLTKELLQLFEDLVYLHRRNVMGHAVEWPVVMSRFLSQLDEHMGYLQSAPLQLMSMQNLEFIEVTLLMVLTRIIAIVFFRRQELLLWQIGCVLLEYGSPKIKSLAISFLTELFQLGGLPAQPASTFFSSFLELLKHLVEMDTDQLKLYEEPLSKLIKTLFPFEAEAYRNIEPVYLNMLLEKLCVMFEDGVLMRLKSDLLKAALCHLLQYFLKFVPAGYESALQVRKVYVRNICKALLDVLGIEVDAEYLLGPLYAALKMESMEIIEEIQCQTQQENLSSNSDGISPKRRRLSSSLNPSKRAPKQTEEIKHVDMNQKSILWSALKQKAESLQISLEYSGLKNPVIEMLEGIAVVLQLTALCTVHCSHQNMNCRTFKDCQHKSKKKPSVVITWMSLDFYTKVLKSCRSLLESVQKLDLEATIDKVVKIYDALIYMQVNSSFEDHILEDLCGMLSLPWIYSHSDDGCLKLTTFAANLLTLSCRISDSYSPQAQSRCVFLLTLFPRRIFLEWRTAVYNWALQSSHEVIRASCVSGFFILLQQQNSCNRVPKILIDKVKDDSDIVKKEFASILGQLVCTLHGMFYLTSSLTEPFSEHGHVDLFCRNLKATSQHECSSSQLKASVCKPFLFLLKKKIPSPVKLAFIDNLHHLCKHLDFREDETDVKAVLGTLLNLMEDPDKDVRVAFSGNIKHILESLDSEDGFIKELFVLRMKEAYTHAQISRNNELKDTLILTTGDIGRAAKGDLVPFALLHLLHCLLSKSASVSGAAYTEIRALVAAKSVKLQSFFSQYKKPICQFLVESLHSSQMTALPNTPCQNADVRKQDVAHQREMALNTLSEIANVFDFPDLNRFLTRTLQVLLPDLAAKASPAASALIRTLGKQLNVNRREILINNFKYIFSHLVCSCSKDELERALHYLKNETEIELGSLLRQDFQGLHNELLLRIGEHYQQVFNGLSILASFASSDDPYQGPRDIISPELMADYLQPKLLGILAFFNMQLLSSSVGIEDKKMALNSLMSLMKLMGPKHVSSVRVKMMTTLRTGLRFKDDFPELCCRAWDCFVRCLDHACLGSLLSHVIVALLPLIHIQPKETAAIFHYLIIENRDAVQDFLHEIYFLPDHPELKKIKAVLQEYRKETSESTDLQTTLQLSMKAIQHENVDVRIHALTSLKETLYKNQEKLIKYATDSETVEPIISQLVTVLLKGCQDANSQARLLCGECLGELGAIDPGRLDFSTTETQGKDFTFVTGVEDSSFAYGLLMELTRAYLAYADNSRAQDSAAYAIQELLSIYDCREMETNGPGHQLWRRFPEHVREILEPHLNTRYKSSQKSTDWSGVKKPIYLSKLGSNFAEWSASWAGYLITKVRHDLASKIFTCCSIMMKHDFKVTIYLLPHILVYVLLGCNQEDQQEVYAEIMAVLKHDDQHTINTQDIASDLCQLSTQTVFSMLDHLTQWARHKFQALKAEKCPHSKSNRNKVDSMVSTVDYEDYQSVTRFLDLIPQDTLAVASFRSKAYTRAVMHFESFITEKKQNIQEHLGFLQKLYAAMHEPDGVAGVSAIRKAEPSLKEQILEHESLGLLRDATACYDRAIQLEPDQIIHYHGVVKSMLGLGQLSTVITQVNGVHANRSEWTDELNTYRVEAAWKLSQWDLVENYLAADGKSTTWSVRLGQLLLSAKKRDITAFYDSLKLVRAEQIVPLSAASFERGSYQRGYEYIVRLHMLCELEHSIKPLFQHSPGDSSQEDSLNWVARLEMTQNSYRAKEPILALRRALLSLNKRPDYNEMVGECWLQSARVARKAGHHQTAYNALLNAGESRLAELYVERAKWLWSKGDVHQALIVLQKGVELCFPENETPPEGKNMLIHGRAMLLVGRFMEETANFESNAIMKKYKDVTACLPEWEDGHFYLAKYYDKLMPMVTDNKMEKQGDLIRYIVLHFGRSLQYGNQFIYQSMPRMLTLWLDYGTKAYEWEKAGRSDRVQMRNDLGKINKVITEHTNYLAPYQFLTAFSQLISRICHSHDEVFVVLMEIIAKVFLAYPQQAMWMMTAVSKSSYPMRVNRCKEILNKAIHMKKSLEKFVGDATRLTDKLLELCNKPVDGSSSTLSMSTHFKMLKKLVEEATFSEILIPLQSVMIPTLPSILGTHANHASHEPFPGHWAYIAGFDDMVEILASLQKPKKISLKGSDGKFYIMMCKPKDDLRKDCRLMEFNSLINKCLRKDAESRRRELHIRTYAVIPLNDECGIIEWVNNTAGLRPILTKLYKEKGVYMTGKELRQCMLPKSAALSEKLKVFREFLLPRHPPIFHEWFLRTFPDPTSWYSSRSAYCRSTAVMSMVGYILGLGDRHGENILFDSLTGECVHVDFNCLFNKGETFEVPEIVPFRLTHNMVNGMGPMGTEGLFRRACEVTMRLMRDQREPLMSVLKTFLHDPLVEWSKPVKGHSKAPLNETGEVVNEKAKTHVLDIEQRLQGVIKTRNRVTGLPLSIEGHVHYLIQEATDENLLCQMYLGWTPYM
# T1 sequence (Q8WXE1 whole entry partner): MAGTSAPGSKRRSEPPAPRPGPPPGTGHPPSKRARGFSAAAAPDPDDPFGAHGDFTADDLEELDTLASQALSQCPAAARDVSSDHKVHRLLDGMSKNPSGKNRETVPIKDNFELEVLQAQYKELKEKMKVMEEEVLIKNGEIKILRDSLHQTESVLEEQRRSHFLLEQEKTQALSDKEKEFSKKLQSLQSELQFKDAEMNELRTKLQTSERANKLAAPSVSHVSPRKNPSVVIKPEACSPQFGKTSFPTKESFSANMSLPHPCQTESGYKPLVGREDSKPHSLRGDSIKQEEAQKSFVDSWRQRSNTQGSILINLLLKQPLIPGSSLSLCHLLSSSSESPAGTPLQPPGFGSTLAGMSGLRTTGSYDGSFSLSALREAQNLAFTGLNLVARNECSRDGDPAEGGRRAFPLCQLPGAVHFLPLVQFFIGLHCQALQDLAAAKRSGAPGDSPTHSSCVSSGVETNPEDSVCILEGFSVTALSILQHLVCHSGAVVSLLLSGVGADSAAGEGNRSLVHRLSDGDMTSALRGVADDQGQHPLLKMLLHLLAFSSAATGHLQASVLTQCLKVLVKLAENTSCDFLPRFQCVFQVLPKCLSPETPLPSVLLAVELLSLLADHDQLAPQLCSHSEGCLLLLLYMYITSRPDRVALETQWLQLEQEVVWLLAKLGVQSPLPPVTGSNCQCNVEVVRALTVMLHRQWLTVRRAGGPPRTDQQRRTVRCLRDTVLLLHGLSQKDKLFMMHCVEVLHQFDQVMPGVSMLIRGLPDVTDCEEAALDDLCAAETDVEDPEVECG
IC50 [1] [nM],IC50 [2] [nM],"IC50 ([3]; Homo sapiens, LoVo, 96 h) [nM]",AUC(0-inf) [4] [ng·h/mL],AUC(0-t) [4] [ng·h/mL],Cmax [4] [ng/mL],half-life [4] [h],IC50 [3] [nM],SMILES
1,22.8,27.4,49000,46400,7180,5.82,,"CC(C)c1nc(-c2ccn[nH]2)n2nc(N3CCOC[C@H]3C)cc(-c3ccnn3C)c12 [Example 26, (R)-4-(5-isopropyl-4-(1-methyl-1H-pyrazol-5-yl)-7-(1H-pyrazol-5-yl)imidazo[1,5-b]pyridazin-2-yl)-3-methylmorpholine]"
2,32,39.1,24100,22400,6610,1.66,,"C=Cc1nc(-c2ccn[nH]2)n2nc(N3CCOC[C@H]3C)cc(-c3ccnn3C)c12 [Example 23, (R)-3-methyl-4-(4-(1-methyl-1H-pyrazol-5-yl)-7-(1H-pyrazol-5-yl)-5-vinylimidazo[1,5-b]pyridazin-2-yl)morpholine]"
2,17.1,24.1,63000,59000,7670,5.88,,"C[C@@H]1COCCN1c1cc(-c2ccnn2C)c2c(Br)nc(-c3ccn[nH]3)n2n1 [Example 22, (R)-4-(5-bromo-4-(1-methyl-1H-pyrazol-5-yl)-7-(1H-pyrazol-5-yl)imidazo[1,5-b]pyridazin-2-yl)-3-methylmorpholine]"
6,12.5,19.5,,,,,,"Cc1cc(S(C)(=O)=O)ccc1-c1cc(N2CCOC[C@H]2C)nn2c(-c3ccn[nH]3)nc(C)c12 [Example 15, (R)-3-methyl-4-(5-methyl-4-(2-methyl-4-(methylsulfonyl)phenyl)-7-(1H-pyrazol-5-yl)imidazo[1,5-b]pyridazin-2-34)morpholine]"
14,33.2,46.5,,,,,,"Cc1nn(C)cc1-c1cc(N2CCOC[C@H]2C)nn2c(-c3ccn[nH]3)nc(C)c12 [Example 13, (R)-4-(4-(1,3-dimethyl-1H-pyrazol-4-yl)-5-methyl-7-(1H-pyrazol-5-yl)imidazo[1,5-b]pyridazin-2-yl)-3-methylmorpholine]"
18,45.8,49.1,,,,,,"Cc1ccc(-c2cc(N3CCOC[C@H]3C)nn3c(-c4ccn[nH]4)nc(C)c23)cn1 [Example 17, (R)-3-methyl-4-(5-methyl-4-(6-methylpyridin-3yl)-7-(1H-pyrazol-5-yl)imidazo[1,5-b]pyridazin-2-yl)morpholine]"
41,89.9,79.1,,,,,,"C[C@@H]1COCCN1c1cc(-c2ccnn2C)c2c(F)nc(-c3ccn[nH]3)n2n1 [Example 20, (R)-4-(5-fluoro-4-(1-methyl-1H-pyrazol-5-yl)-7-(1H-pyrazol-5-yl)imidazo[1,5-b]pyridazin-2-yl)-3-methylmorpholine]"
10,28,41.8,,,,,47.2,"Cc1nc(-c2ccn[nH]2)n2nc(N3CCOC[C@H]3C)cc(-c3ccncc3F)c12 [Example 18, (R)-4-(4-(3-fluoropyridin-4-yl)-5-methyl-7-(1H-pyrazol-5-yl)imidazo[1,5-b]pyridazin-2-yl)-3-methylmorpholine]"
,68.3,110,,,,,,"C[C@@H]1COCCN1c1nc(-c2ccnn2C)c2cnc(-c3cc[nH]n3)n2n1 [Example 27, (R)-3-methyl-4-(4-(1-methyl-1H-pyrazol-5-yl)-7-(1H-pyrazol-3-yl)imidazo[5,1-f][1,2,4]triazin-2-yl)morpholine]"
9,12.5,17.6,,,,,,"Cc1nc(-c2ccn[nH]2)n2nc(N3CCOC[C@H]3C)cc(-c3cccnc3F)c12 [Example 16, (R)-4-(4-(2-fluoropyridin-3-yl)-5-methyl-7-(1H-pyrazol-5-yl)imidazo[1,5-b]pyridazin-2-yl)-3-methylmorpholine]"

# Continued, molecule first:
SMILES,IC50 [1] [nM],IC50 [2] [nM],"IC50 ([3]; Homo sapiens, LoVo, 96 h) [nM]",AUC(0-inf) [4] [ng·h/mL],AUC(0-t) [4] [ng·h/mL],Cmax [4] [ng/mL],half-life [4] [h],IC50 [3] [nM]
"Cc1nc(-c2ccn[nH]2)n2nc(N3CCOC[C@H]3C)cc(-c3cccnc3C(F)(F)F)c12 [Example 5, (R)-3-methyl-4-(5-methyl-7-(1H-pyrazol-5-yl)-4-(2-(trifluoromethyl)pyridin-3-yl)imidazo[1,5-b]pyridazin-2-yl)morpholine]",3,17.8,25.5,31700,30800,8930,3.42,
"Cc1nc(-c2ccn[nH]2)n2nc(N3CCOC[C@H]3C)cc(-c3cccc(C#N)c3)c12 [Example 6, (R)-3-(5-methyl-2-(3-methylmorpholino)-7-(1H-pyrazol-5-yl)imidazol, [1,5-b]pyridazin-4-yl)benzonitrile]",5,21.8,44.1,,,,,
"CCn1nccc1-c1cc(N2CCOC[C@H]2C)nn2c(-c3ccn[nH]3)nc(C)c12 [Example 2, (R)-4-(4-(1-ethyl-1H-pyrazol-5-yl)-5-methyl-7-(1H-pyrazol-5-yl)imidazo[1,5-b]pyridazin-2-yl)-3-methylmorpholine]",3,21.9,43.6,,,,,
"Cc1cnn(C)c1-c1cc(N2CCOC[C@H]2C)nn2c(-c3ccn[nH]3)nc(C)c12 [Example 11, (R)-4-(4-(1,4-dimethyl-1H-pyrazol-5-yl)-5-methyl-7-(1H-pyrazol-5-yl)imidazo[1,5-b]pyridazin-2-yl)-3-methylmorpholine]",2,30.1,,,,,,
"Cc1nc(-c2ccn[nH]2)n2nc(N3CCOC[C@H]3C)cc(-c3cnn(C)c3C)c12 [Example 12, (R)-4-(4-(1,5-dimethyl-1H-pyrazol-4-yl)-5-methyl-7-(1H-pyrazol-5-yl)imidazo[1,5-b]pyridazin-2-yl)-3-methylmorpholine]",1,28,19.6,,,,,
"Cc1nc(-c2ccn[nH]2)n2nc(N3CCOC[C@H]3C)cc(-c3ccnn3C(C)C)c12 [Example 9, (R)-4-(4-(1-isopropyl-1H-pyrazol-5-yl)-5-methyl-7-(1H-pyrazol-5-yl)imidazo[1,5-b]pyridazin-2-yl)-3-methylmorpholine]",3,30.2,39.3,,,,,
"Cc1nc(-c2ccn[nH]2)n2nc(N3CCOC[C@H]3C)cc(C3CCOCC3)c12 [Example 7, (R)-3-methyl-4-(5-methyl-7-(1H-pyrazol-5-yl)-4-(tetrahydro-2H-pyran-4-yl)imidazol[1,5-b]pyridazin-2-yl)morpholine]",1,15.7,24.6,,,,,
"Cc1ccccc1-c1cc(N2CCOC[C@H]2C)nn2c(-c3ccn[nH]3)nc(C)c12 [Example 3, (R)-3-methyl-4-(5-methyl-7-(1H-pyrazol-5-yl)-4-(o-tolyl)imidazo[1,5-b]pyridazin-2-yl)morpholine]",2,27.3,49.5,,,,,
"Cc1cc(-c2nc(C)c3c(-c4ccnn4C)cc(N4CCOC[C@H]4C)nn23)[nH]n1 [Example 8, (R)-3-methyl-4-(5-methyl-4-(1-methyl-1H-pyrazol-5-yl)-7-(3-methyl-1H-pyrazol-5-yl)imidazo[1,5-b]pyridazin-2-yl)morpholine]",4,14.9,17.9,,,,,
"Cc1nc(-c2ccn[nH]2)n2nc(N3CCOC[C@H]3C)cc(-c3ccn(C(F)F)n3)c12 [Example 10, (R)-4-(4-(1-(difluoromethyl)-1H-pyrazol-3-yl)-5-methyl-7-(1H-pyrazol-5-yl)imidazo[1,5-b]pyridazin-2-yl)-3-methylmorpholine]",217,97.3,116,,,,,

# Reference: patent US20240059695A1, “SUBSTITUTED IMIDAZO[1,5-b]PYRIDAZINE COMPOUNDS AS KINASE INHIBITORS AND USE THEREOF” (IMPACT THERAPEUTICS (SHANGHAI), INC, priority 2020, published 2024)
